The values below come from PubChem BioAssay (NCI).

Several values for one entry are separate records, joined by “and”; a condition that tells them apart may be missing. Identical values can stand only once.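 The compound was tested at five concentrations on cells cultured in 96-well plates, with a 48-hour exposure period. The concentration for 50% growth inhibition is given as GI50. The concentration for full growth arrest is given as TGI.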 Where only a bound is given, the exact number is not on record here.

Test systems include ACHN renal; COLO 205 colon; HCC-2998 colon; HOP-92 NSCLC; KM12 colon; OVCAR-5 ovarian; SK-MEL-5 melanoma; SNB-19 CNS; SNB-75 CNS; SR leukemia.
Common to all, as to test: NCI-60 cell line screen, 48 h

Consider `Clc1ccc(CCN2CCOCC2)c(Cl)c1`, for which the TGI in the experiment with ACHN renal, in the experiment on COLO 205 colon, in the experiment with HCC-2998 colon, in the experiment on HOP-92 NSCLC, in the experiment with KM12 colon and with OVCAR-5 ovarian was > 100 µM each time. The TGI with SK-MEL-5 melanoma was > 100 µM; in the experiment on SNB-19 CNS, > 100 µM; in the experiment on SNB-75 CNS it was 83.3 µM; with SR leukemia it was > 100 µM.

With `C[C@H]1CC(=O)[C@@]2(O)C#C/C=C\C#C[C@@H]3Nc4c(cc(O)c5c4C(=O)c4ccccc4C5=O)[C@]24O[C@]314`, the TGI is 0.0252 µM in the experiment on ACHN renal; 0.342 µM in the experiment with COLO 205 colon; 0.0595 µM with HCC-2998 colon; 0.336 µM in the experiment on HOP-92 NSCLC; 0.226 µM and 0.48 µM with KM12 colon; 0.679 µM with OVCAR-5 ovarian. Further, the TGI with SK-MEL-5 melanoma is 0.123 µM and 0.0412 µM; in the experiment on SNB-19 CNS it was 0.172 µM; in the experiment with SNB-75 CNS, 0.0804 µM and 0.0719 µM; in the experiment with SR leukemia, 0.0426 µM. The GI50 in the experiment with KM12 colon was 0.128 µM; in the experiment on SNB-75 CNS, 0.0062 µM.

Regarding `O=C(N/N=C\c1cc(Cl)ccc1O)N/N=C/c1cc(Cl)ccc1O`, the GI50 in the experiment with ACHN renal was 1.17 µM; in the experiment on COLO 205 colon, 4.92 µM; with HCC-2998 colon, 3.34 µM; in the experiment on HOP-92 NSCLC, 0.99 µM; in the experiment on KM12 colon it was 13.1 µM; in the experiment on OVCAR-5 ovarian, > 100 µM. Moreover, the GI50 is 6.41 µM with SK-MEL-5 melanoma, > 100 µM in the experiment on SNB-19 CNS, 0.969 µM with SNB-75 CNS and 78.5 µM in the experiment on SR leukemia. In addition, the TGI is > 100 µM with ACHN renal; > 100 µM in the experiment on COLO 205 colon; > 100 µM in the experiment on HCC-2998 colon; 9.48 µM in the experiment on HOP-92 NSCLC; > 100 µM with KM12 colon; > 100 µM with OVCAR-5 ovarian. In addition, the TGI in the experiment with SK-MEL-5 melanoma, in the experiment on SNB-19 CNS, in the experiment with SNB-75 CNS and with SR leukemia was > 100 µM in each case.

As to `C[C@@H]1CC[C@H]2C(CN3CCN(CC4=C(C(F)(F)F)O[C@@H]5O[C@@]6(C)CC[C@H]7[C@H](C)CC[C@@H]4[C@@]57OO6)CC3)=C(C(F)(F)F)O[C@@H]3O[C@@]4(C)CC[C@@H]1[C@]32OO4`, the GI50 with ACHN renal was 2.61 µM; with COLO 205 colon, 0.996 µM; with HCC-2998 colon it was 10.5 µM; with HOP-92 NSCLC, 5.15 µM; in the experiment on KM12 colon, 0.944 µM; in the experiment on OVCAR-5 ovarian it was 1.45 µM. The GI50 is 2.96 µM with SK-MEL-5 melanoma, 7.75 µM with SNB-19 CNS, 1.74 µM with SNB-75 CNS and 1.89 µM with SR leukemia. In addition, the TGI with ACHN renal is > 27.2 µM; in the experiment with HCC-2998 colon, > 100 µM; in the experiment with HOP-92 NSCLC, > 100 µM; in the experiment on KM12 colon, > 26.6 µM; in the experiment on OVCAR-5 ovarian, > 100 µM; with SK-MEL-5 melanoma, > 100 µM. Besides, the TGI in the experiment with SNB-19 CNS was > 100 µM; with SNB-75 CNS it was > 29.4 µM; with SR leukemia it was > 100 µM.

Take `Fc1ccc(-c2c(-c3ccncc3)n(CCN3CCOCC3)c3cccnc23)cc1`: the GI50 with ACHN renal is > 25 µM; in the experiment on COLO 205 colon, > 25 µM; with HCC-2998 colon, > 25 µM; with HOP-92 NSCLC, 2.2 µM; in the experiment on KM12 colon it was > 25 µM; in the experiment on OVCAR-5 ovarian, > 25 µM. In addition, the GI50 with SK-MEL-5 melanoma, in the experiment with SNB-19 CNS, with SNB-75 CNS and with SR leukemia was > 25 µM in each case. Moreover, the TGI with ACHN renal, in the experiment on COLO 205 colon, in the experiment with HCC-2998 colon, in the experiment on HOP-92 NSCLC, in the experiment with KM12 colon and in the experiment on OVCAR-5 ovarian was > 25 µM each time. Besides, the TGI with SK-MEL-5 melanoma, in the experiment on SNB-19 CNS, with SNB-75 CNS and in the experiment with SR leukemia was > 25 µM each time.

`Cc1ccc(C)c(NC(=O)CCc2n[nH]c(=S)o2)c1`: the TGI in the experiment on ACHN renal, in the experiment on COLO 205 colon, in the experiment with HCC-2998 colon, in the experiment on HOP-92 NSCLC, in the experiment on KM12 colon and in the experiment on OVCAR-5 ovarian was > 100 µM each time. In addition, the TGI with SK-MEL-5 melanoma, with SNB-19 CNS, in the experiment with SNB-75 CNS and in the experiment on SR leukemia was > 100 µM each time.

On to `C1CCN2CC34CC(CC5CCCN(C6CCCC3N6)C54)C2C1` (stereo unspecified), for which the TGI in the experiment with ACHN renal, in the experiment on COLO 205 colon, in the experiment on HCC-2998 colon, with HOP-92 NSCLC, in the experiment on KM12 colon and in the experiment with OVCAR-5 ovarian was > 100 µM each time. The TGI with SK-MEL-5 melanoma, in the experiment with SNB-19 CNS, in the experiment with SNB-75 CNS and in the experiment with SR leukemia was > 100 µM in each case.

As for `COCCOCCOCCOCCOc1ccc2c(c1)C(=O)c1nc3ncccc3c(=O)n1-2`, the GI50 in the experiment with ACHN renal was 2.64 µM; in the experiment with COLO 205 colon, 1.88 µM; in the experiment on HCC-2998 colon, 1.32 µM; in the experiment with HOP-92 NSCLC it was 8.23 µM; with KM12 colon it was 1.22 µM; in the experiment on OVCAR-5 ovarian, 1.78 µM. The GI50 in the experiment with SK-MEL-5 melanoma is 0.158 µM; in the experiment on SNB-19 CNS, 1.28 µM; in the experiment on SNB-75 CNS it was 2.07 µM; in the experiment with SR leukemia it was 2.25 µM. The TGI worked out at 8.19 µM in the experiment with ACHN renal; 3.35 µM in the experiment with COLO 205 colon; 2.79 µM with HCC-2998 colon; 29.5 µM in the experiment with HOP-92 NSCLC; 2.71 µM with KM12 colon; 3.16 µM in the experiment on OVCAR-5 ovarian. For the same compound, the TGI with SK-MEL-5 melanoma is 0.312 µM; in the experiment with SNB-19 CNS, 2.64 µM; in the experiment on SNB-75 CNS, 3.65 µM; with SR leukemia it was > 100 µM.

Take `C=C1C(=O)O[C@H]2[C@H](OC(C)=O)[C@@H](C)CCC/C(C)=C/CC[C@]3(CO3)[C@H](O)C[C@@H]12`: the GI50 is 2.3 µM in the experiment with ACHN renal; 3.89 µM in the experiment on COLO 205 colon; 15.2 µM in the experiment with HCC-2998 colon; 2.11 µM with HOP-92 NSCLC; 2.33 µM in the experiment with KM12 colon; 13.2 µM in the experiment on OVCAR-5 ovarian. Moreover, the GI50 is 13.4 µM in the experiment with SK-MEL-5 melanoma, 15.2 µM in the experiment on SNB-19 CNS, 10.8 µM in the experiment on SNB-75 CNS and 1.32 µM with SR leukemia. Further, the TGI was 4.17 µM with ACHN renal; 13.7 µM with COLO 205 colon; 28.4 µM with HCC-2998 colon; 6.75 µM in the experiment on HOP-92 NSCLC; 8.96 µM in the experiment with KM12 colon; 26.5 µM in the experiment with OVCAR-5 ovarian. The TGI with SK-MEL-5 melanoma turned out to be 27.4 µM; in the experiment with SNB-19 CNS, 28.5 µM; in the experiment on SNB-75 CNS, 22.9 µM; in the experiment on SR leukemia, 3.94 µM.

For `CC(C)=CCC[C@](C)(O)[C@H]1CC[C@]2(C)[C@@H]1CC[C@@H]1[C@@]3(C)CC[C@H](OC(=O)CCC(=O)O)C(C)(C)[C@@H]3CC[C@]12C`, the GI50 in the experiment with ACHN renal was 28.3 µM; with COLO 205 colon, 27.4 µM; in the experiment on HCC-2998 colon, 30.6 µM; with HOP-92 NSCLC it was 14.5 µM; in the experiment on KM12 colon it was 18.5 µM; in the experiment on OVCAR-5 ovarian it was 28.8 µM. For the same compound, the GI50 in the experiment with SK-MEL-5 melanoma was 17.8 µM; in the experiment on SNB-19 CNS, 25.1 µM; in the experiment on SNB-75 CNS, > 100 µM; in the experiment with SR leukemia, 19.4 µM. Besides, the TGI in the experiment on ACHN renal was > 100 µM; in the experiment on COLO 205 colon, 95.3 µM; with HCC-2998 colon, > 100 µM; in the experiment with HOP-92 NSCLC it was 35.9 µM; in the experiment on KM12 colon, 41.2 µM; in the experiment with OVCAR-5 ovarian it was 96.3 µM. Also, the TGI with SK-MEL-5 melanoma was 43.2 µM; with SNB-19 CNS, > 100 µM; with SNB-75 CNS, > 100 µM; with SR leukemia it was 56.5 µM.

With `COc1cc(C=NCC(=O)CSC(c2ccccc2)c2ccccc2)cc(OC)c1OC`, the GI50 in the experiment on ACHN renal is 26.4 µM; in the experiment on COLO 205 colon it was 4.96 µM; in the experiment on HCC-2998 colon, 23 µM; with HOP-92 NSCLC it was 8.59 µM; with KM12 colon, 25.3 µM; in the experiment on OVCAR-5 ovarian, 63.5 µM. Besides, the GI50 in the experiment with SK-MEL-5 melanoma is 11.8 µM; in the experiment on SNB-19 CNS, 30 µM; in the experiment on SNB-75 CNS it was 25.5 µM; in the experiment on SR leukemia it was 14 µM. Further, the TGI in the experiment on ACHN renal is > 100 µM; in the experiment on COLO 205 colon it was 33 µM; in the experiment with HCC-2998 colon, 57.3 µM; in the experiment with HOP-92 NSCLC, > 100 µM; in the experiment on KM12 colon, 82.1 µM; in the experiment with OVCAR-5 ovarian, > 100 µM. The TGI in the experiment on SK-MEL-5 melanoma was 24.4 µM; with SNB-19 CNS, > 100 µM; with SNB-75 CNS, > 100 µM; in the experiment on SR leukemia, > 100 µM.

As for `Cc1cc(I)cc(CN(C)CCCCN2CCCC2)c1O`, the GI50 is 36.8 µM in the experiment on ACHN renal; 13.4 µM in the experiment on COLO 205 colon; 18 µM in the experiment on HCC-2998 colon; 15.3 µM with HOP-92 NSCLC; 19.8 µM in the experiment on KM12 colon; 27.6 µM with OVCAR-5 ovarian. The GI50 is 12.7 µM in the experiment on SK-MEL-5 melanoma, 27.8 µM with SNB-19 CNS, 16.5 µM in the experiment on SNB-75 CNS and 11.5 µM in the experiment on SR leukemia. In addition, the TGI in the experiment on ACHN renal is > 100 µM; in the experiment with COLO 205 colon, 26.1 µM; with HCC-2998 colon it was 36.3 µM; with HOP-92 NSCLC, 70.2 µM; in the experiment with KM12 colon, 53.9 µM; with OVCAR-5 ovarian it was > 100 µM. Moreover, the TGI in the experiment with SK-MEL-5 melanoma was determined as 25.2 µM; with SNB-19 CNS, 96.1 µM; in the experiment on SNB-75 CNS, 36.9 µM; with SR leukemia, 29.4 µM.

For the compound `Cc1ccc(C)c2sc3cc(=O)ccc-3nc12`, the TGI was > 100 µM with ACHN renal; > 100 µM in the experiment with COLO 205 colon; > 100 µM in the experiment on HCC-2998 colon; 83.3 µM in the experiment with HOP-92 NSCLC; > 100 µM in the experiment on KM12 colon; 74.1 µM in the experiment with OVCAR-5 ovarian. Also, the TGI with SK-MEL-5 melanoma was 31 µM; in the experiment with SNB-19 CNS, > 100 µM; with SNB-75 CNS it was > 100 µM; in the experiment on SR leukemia, > 100 µM.
